Laboratory results taken from patent US20240043427A1 (Gilead Sciences, Inc., priority 2020, published 2024).

Tests used:
CD73 [1] = target: T1, CD73 (Homo sapiens (Human), UniProt P21589); assay: MDA-MB-231 Cell Based CD73 Activity Assay; settings: MDA-MB-231-GFP cells, RPMI medium with 10% human plasma, 200 uM AMP
Protocol: MDA-MB-231 Cell Based CD73 Activity Assay
MDA-MB-231-GFP cells were seeded in 384-well plates (Greiner 781946) at a density of 10000 cells per well in 50 μL of RPMI medium with 10% HP (human plasma). Cells were plated into assay plate with compounds pre-spotted, for an overnight compound treatment. 50 μL of 400 μM AMP (final concentration 200 μM) using a Bio-tek dispenser. Plates were incubated for 100 mins. […] The samples were run using Rapid fire.

CD73 [2] = target: T1, CD73; format: biochemical; settings: 1 mM NaH2PO4 in enzyme buffer, CD73 0.3 nM, AMP 15 uM
CD73 [3] = target: T1, CD73; assay: MDA-MB-231 Cell Based CD73 Activity Assay (DMEM); settings: MDA-MB-231-GFP cells, DMEM medium with 10% human plasma, 200 uM AMP

T1 sequence (P21589 27-574): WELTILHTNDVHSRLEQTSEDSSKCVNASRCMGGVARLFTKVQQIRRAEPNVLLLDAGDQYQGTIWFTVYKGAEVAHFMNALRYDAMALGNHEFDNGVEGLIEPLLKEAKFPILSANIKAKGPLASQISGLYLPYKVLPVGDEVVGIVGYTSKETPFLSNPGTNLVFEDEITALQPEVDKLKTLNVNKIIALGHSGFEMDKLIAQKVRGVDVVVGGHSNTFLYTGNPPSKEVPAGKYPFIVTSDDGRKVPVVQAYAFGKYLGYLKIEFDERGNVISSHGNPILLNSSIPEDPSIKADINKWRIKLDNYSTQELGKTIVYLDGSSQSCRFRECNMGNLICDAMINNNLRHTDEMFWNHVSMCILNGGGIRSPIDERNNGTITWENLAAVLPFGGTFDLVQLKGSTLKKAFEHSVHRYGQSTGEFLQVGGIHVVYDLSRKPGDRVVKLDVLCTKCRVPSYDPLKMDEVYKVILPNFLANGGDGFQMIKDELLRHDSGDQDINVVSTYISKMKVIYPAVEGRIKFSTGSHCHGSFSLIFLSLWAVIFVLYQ

Structure (SMILES): O=c1[nH]cc(-c2cc([C@H]3C[C@@H]3c3ccc(OC(F)(F)F)cc3)c3nccn3n2)c(=O)[nH]1 (mixture of isomers) [Example 48, 5-(8-((1S,2S)-2-(4-(trifluoromethoxy)phenyl)cyclopropyl)imidazo[1,2-b]pyridazin-6-yl)pyrimidine-2,4(1H,3H)-dione and 5-(8-((1R,2R)-2-(4-(trifluoromethoxy)phenyl)cyclopropyl)imidazo[1,2-b]pyridazin-6-yl)pyrimidine-2,4(1H,3H)-dione]
- EC50 (CD73 [1]): 16.7 nM

Structure (SMILES): O=c1[nH]cc(-c2cc([C@H]3C[C@]3(F)c3ccccc3)c3nccn3n2)c(=O)[nH]1 (mixture of isomers) [Example 108, 5-(8-((1R,2R)-2-fluoro-2-phenylcyclopropyl)imidazo[1,2-b]pyridazin-6-yl)pyrimidine-2,4(1H,3H)-dione and 5-(8-((1S,2S)-2-fluoro-2-phenylcyclopropyl)imidazo[1,2-b]pyridazin-6-yl)pyrimidine-2,4(1H,3H)-dione]
- EC50 (CD73 [1]): 23.8 nM

Structure (SMILES): O=c1[nH]cc(-c2cc([C@H]3C[C@@H]3C3CC(F)(F)C3)c3nccn3n2)c(=O)[nH]1 (mixture of isomers) [Example 106, 5-(8-((1S,2R)-2-(3,3-difluorocyclobutyl)cyclopropyl)imidazo[1,2-b]pyridazin-6-yl)pyrimidine-2,4(1H,3H)-dione and 5-(8-((1R,2S)-2-(3,3-difluorocyclobutyl)cyclopropyl)imidazo[1,2-b]pyridazin-6-yl)pyrimidine-2,4(1H,3H)-dione]
- EC50 (CD73 [1]): 93.5 nM

Structure (SMILES): COc1ccccc1[C@H]1C[C@@H]1c1cc(-c2c[nH]c(=O)[nH]c2=O)nn2ccnc12 (mixture of isomers) [Example 101, 5-(8-((1S,2S)-2-(2-methoxyphenyl)cyclopropyl)imidazo[1,2-b]pyridazin-6-yl)pyrimidine-2,4(1H,3H)-dione and 5-(8-((1R,2R)-2-(2-methoxyphenyl)cyclopropyl)imidazo[1,2-b]pyridazin-6-yl)pyrimidine-2,4(1H,3H)-dione]
- EC50 (CD73 [1]): 3.25 nM

Structure (SMILES): O=c1[nH]cc(-c2cc(N3CC4CC3C4)c3nccn3n2)c(=O)[nH]1 [Example 641, 5-(8-(2-azabicyclo[2.1.1]hexan-2-yl)imidazo[1,2-b]pyridazin-6-yl)pyrimidine-2,4(1H,3H)-dione]
- IC50 (CD73 [2]): 77.5 nM
- EC50 (CD73 [3]): 207 nM

Structure (SMILES): O=c1[nH]cc(-c2cc([C@H]3C[C@@H]3c3ncc(C(F)(F)F)cc3F)c3nccn3n2)c(=O)[nH]1 [Example 635, 5-(8-((1S,2S)-2-(3-fluoro-5-(trifluoromethyl)pyridin-2-yl)cyclopropyl)imidazo[1,2-b]pyridazin-6-yl)pyrimidine-2,4(1H,3H)-dione]
- IC50 (CD73 [2]): 2.08 nM
- EC50 (CD73 [3]): 2.75 nM

Structure (SMILES): O=c1[nH]cc(-c2cc([C@H]3C[C@@H]3c3cc(-c4ccc(F)cc4F)ccn3)c3nccn3n2)c(=O)[nH]1 (racemic) [Example 623, 5-(8-((1S,2S)-2-(4-(2,4-difluorophenyl)pyridin-2-yl)cyclopropyl)imidazo[1,2-b]pyridazin-6-yl)pyrimidine-2,4(1H,3H)-dione]
- IC50 (CD73 [2]): 2.27 nM
- EC50 (CD73 [3]): 22 nM

Structure (SMILES): O=c1[nH]cc(-c2cc(N3CC(F)(F)C4(CC4)C3)c3nccn3n2)c(=O)[nH]1 [Example 83, 5-(8-(7,7-difluoro-5-azaspiro[2.4]heptan-5-yl)imidazo[1,2-b]pyridazin-6-yl)pyrimidine-2,4(1H,3H)-dione]
- IC50 (CD73 [2]): 1.47 nM
- EC50 (CD73 [3]): 6.65 nM

Structure (SMILES): O=c1[nH]cc(-c2cc([C@H]3C[C@@H]3c3ccc4ccc(=O)n(CC(F)(F)F)c4c3)c3nccn3n2)c(=O)[nH]1 (racemic) [Example 598, 5-(8-((1S,2S)-2-(2-oxo-1-(2,2,2-trifluoroethyl)-1,2-dihydroquinolin-7-yl)cyclopropyl)imidazo[1,2-b]pyridazin-6-yl)pyrimidine-2,4(1H,3H)-dione]
- IC50 (CD73 [2]): 1.11 nM
- EC50 (CD73 [3]): 0.11 nM

Structure (SMILES): C[C@H]1CN(c2cc(-c3c[nH]c(=O)[nH]c3=O)nn3c(Cl)cnc23)CC1(F)F [Example 520, (S)-5-(3-chloro-8-(3,3-difluoro-4-methylpyrrolidin-1-yl)imidazo[1,2-b]pyridazin-6-yl)pyrimidine-2,4(1H,3H)-dione]
- IC50 (CD73 [2]): 43.8 nM
- EC50 (CD73 [3]): 421 nM

Structure (SMILES): CCC(F)(F)COc1cc(-c2c[nH]c(=O)[nH]c2=O)nn2ccnc12 [Example 688, 5-(8-(2,2-difluorobutoxy)imidazo[1,2-b]pyridazin-6-yl)pyrimidine-2,4(1H,3H)-dione]
- IC50 (CD73 [2]): 7.02 nM
- EC50 (CD73 [3]): 34.2 nM

Structure (SMILES): CC1(C)C(=O)N(CC(F)(F)F)c2cc([C@H]3C[C@@H]3c3cc(-c4c[nH]c(=O)[nH]c4=O)nn4ccnc34)cnc21 [Example 699, 5-(8-((1S,2S)-2-(3,3-dimethyl-2-oxo-1-(2,2,2-trifluoroethyl)-2,3-dihydro-1H-pyrrolo[3,2-b]pyridin-6-yl)cyclopropyl)imidazo[1,2-b]pyridazin-6-yl)pyrimidine-2,4(1H,3H)-dione]
- IC50 (CD73 [2]): 3.15 nM
- EC50 (CD73 [3]): 0.56 nM

Structure (SMILES): O=C(NC1(C(F)(F)F)CC1)O[C@H]1CN(c2cc(-c3c[nH]c(=O)[nH]c3=O)nn3c(F)cnc23)CC1(F)F [Example 664, (S)-1-(6-(2,4-dioxo-1,2,3,4-tetrahydropyrimidin-5-yl)-3-fluoroimidazo[1,2-b]pyridazin-8-yl)-4,4-difluoropyrrolidin-3-yl (1-(trifluoromethyl)cyclopropyl)carbamate]
- IC50 (CD73 [2]): 0.92 nM
- EC50 (CD73 [3]): 0.21 nM

Structure (SMILES): O=c1[nH]cc(-c2cc(N3CC4(CCC4)C3)c3nccn3n2)c(=O)[nH]1 [Example 398, 5-(8-(2-azaspiro[3.3]heptan-2-yl)imidazo[1,2-b]pyridazin-6-yl)pyrimidine-2,4(1H,3H)-dione]
- IC50 (CD73 [2]): 17.1 nM
- EC50 (CD73 [3]): 29.5 nM

Structure (SMILES): O=c1[nH]cc(-c2cc(N3CCC(c4ccc(C(F)(F)F)cc4)C3)c3ncc(F)n3n2)c(=O)[nH]1 (stereo not shown) [Example 262, 5-(3-fluoro-8-(3-(4-(trifluoromethyl)phenyl)pyrrolidin-1-yl)imidazo[1,2-b]pyridazin-6-yl)pyrimidine-2,4(1H,3H)-dione]
- IC50 (CD73 [2]): 73.4 nM
- EC50 (CD73 [3]): 565 nM

Structure (SMILES): O=c1[nH]cc(-c2cc([C@H]3C[C@@H]3c3ccc(F)cc3F)c3nc(C4CC4)cn3n2)c(=O)[nH]1 [Example 146, 5-(2-cyclopropyl-8-((1S,2S)-2-(2,4-difluorophenyl)cyclopropyl)imidazo[1,2-b]pyridazin-6-yl)pyrimidine-2,4(1H,3H)-dione]
- IC50 (CD73 [2]): 6.12 nM
- EC50 (CD73 [3]): 46.7 nM

Structure (SMILES): O=C(OCc1ccccc1)N1CC2(C1)CN(c1cc(-c3c[nH]c(=O)[nH]c3=O)nn3ccnc13)CC2(F)F [Example 505, benzyl 6-(6-(2,4-dioxo-1,2,3,4-tetrahydropyrimidin-5-yl)imidazo[1,2-b]pyridazin-8-yl)-8,8-difluoro-2,6-diazaspiro[3.4]octane-2-carboxylate]
- IC50 (CD73 [2]): 5.61 nM
- EC50 (CD73 [3]): 10.1 nM

Structure (SMILES): O=C(NCC(F)(F)F)O[C@H]1CN(c2cc(-c3c[nH]c(=O)[nH]c3=O)nn3ccnc23)CC1(F)F [Example 545, (S)-1-(6-(2,4-dioxo-1,2,3,4-tetrahydropyrimidin-5-yl)imidazo[1,2-b]pyridazin-8-yl)-4,4-difluoropyrrolidin-3-yl (2,2,2-trifluoroethyl)carbamate]
- IC50 (CD73 [2]): 0.4 nM
- EC50 (CD73 [3]): 0.22 nM

Structure (SMILES): O=c1[nH]cc(-c2cc(NCC(F)(F)c3ccccc3)c3nccn3n2)c(=O)[nH]1 [Example 498, 5-(8-((2,2-difluoro-2-phenylethyl)amino)imidazo[1,2-b]pyridazin-6-yl)pyrimidine-2,4(1H,3H)-dione]
- IC50 (CD73 [2]): 50.7 nM
- EC50 (CD73 [3]): 260 nM

Structure (SMILES): O=c1[nH]cc(-c2cc(NC3CCCC3)c3nccn3n2)c(=O)[nH]1 [Example 226, 5-(8-(cyclopentylamino)imidazo[1,2-b]pyridazin-6-yl)pyrimidine-2,4(1H,3H)-dione]
- IC50 (CD73 [2]): 121 nM
- EC50 (CD73 [3]): 410 nM

Structure (SMILES): O=C1N(CC2(F)CC2)c2cc([C@H]3C[C@@H]3c3cc(-c4c[nH]c(=O)[nH]c4=O)nn4ccnc34)ccc2C12CC2 (racemic) [Example 734, 5-(8-((1S,2S)-2-(1′-((1-fluorocyclopropyl)methyl)-2′-oxospiro[cyclopropane-1,3′-indolin]-6′-yl)cyclopropyl)imidazo[1,2-b]pyridazin-6-yl)pyrimidine-2,4(1H,3H)-dione]
- IC50 (CD73 [2]): 1.69 nM
- EC50 (CD73 [3]): 0.19 nM

Structure (SMILES): CC1(C)CN(c2cc(-c3c[nH]c(=O)[nH]c3=O)nn3ccnc23)CC(F)(F)C1 [Example 320, 5-(8-(3,3-difluoro-5,5-dimethylpiperidin-1-yl)imidazo[1,2-b]pyridazin-6-yl)pyrimidine-2,4(1H,3H)-dione]
- IC50 (CD73 [2]): > 250 nM
- EC50 (CD73 [3]): 1150 nM

Structure (SMILES): C#CCC1CCN(c2cc(-c3c[nH]c(=O)[nH]c3=O)nn3ccnc23)C1 (stereo not shown) [Example 593, 5-(8-(3-(prop-2-yn-1-yl)pyrrolidin-1-yl)imidazo[1,2-b]pyridazin-6-yl)pyrimidine-2,4(1H,3H)-dione]
- IC50 (CD73 [2]): 7.24 nM
- EC50 (CD73 [3]): 33 nM

Structure (SMILES): Cn1ccc(-c2cc(-c3c[nH]c(=O)[nH]c3=O)nn3ccnc23)n1 [Example 512, 5-(8-(1-methyl-1H-pyrazol-3-yl)imidazo[1,2-b]pyridazin-6-yl)pyrimidine-2,4(1H,3H)-dione]
- IC50 (CD73 [2]): > 250 nM
- EC50 (CD73 [3]): 1140 nM

Structure (SMILES): CNC(=O)c1ccc(C2CCN(c3cc(-c4c[nH]c(=O)[nH]c4=O)nn4ccnc34)C2)cc1 (stereo not shown) [Example 270, 4-(1-(6-(2,4-dioxo-1,2,3,4-tetrahydropyrimidin-5-yl)imidazo[1,2-b]pyridazin-8-yl)pyrrolidin-3-yl)-N-methylbenzamide]
- IC50 (CD73 [2]): 1.13 nM
- EC50 (CD73 [3]): 13.7 nM
